Experimental findings from patent US7572444B2, “Binding proteins specific for human matriptase” (Amgen Fremont Inc., priority 2004, dated 2009) are described below.

Assay [1] concerns the target T1, catalytic domain of Matriptase (Homo sapiens, UniProt Q9Y5Y6).
T1 sequence (Q9Y5Y6 615-855): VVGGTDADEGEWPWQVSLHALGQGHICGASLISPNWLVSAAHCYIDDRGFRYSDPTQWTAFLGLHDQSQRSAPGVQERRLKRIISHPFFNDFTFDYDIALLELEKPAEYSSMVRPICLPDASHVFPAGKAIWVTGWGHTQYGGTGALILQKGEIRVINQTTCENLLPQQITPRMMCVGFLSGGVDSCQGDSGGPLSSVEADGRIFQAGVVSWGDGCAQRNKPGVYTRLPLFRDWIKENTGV
The experiment in a line: Enzymatic assay with tripeptide QAR-MCA substrate (Tripeptide-MCA assay). The assay is classed as biochemical. Particulars: at the concentration that inhibits the unknown protease. On the procedure: All 972 wells were then analyzed in an enzymatic assay using the catalytic domain of Matriptase and the tripeptide QAR-MCA (Peptides International Inc., Louisville, Ky.) as substrate. The cleavage of the QAR-MCA substrate by Matriptase causes the release of a methylcoumarin amide group (MCA) as amino-methyl coumarin (AMC). The free AMC can then be detected using a fluorescent reader as a measure of Matriptase activity.
(§1) The development of the assay method was complicated by the finding that an unknown protease was present in the B cell culture supernatant that was able to cleave the QAR-MCA substrate. […] This was advantageous as the background cleavage would no longer affect the ability to identify neutralizing antibodies against Matriptase. The supernatant also contained an unknown Matriptase inhibitor that necessitated a relatively high Matriptase concentration in the assay.
The wells were determined to be positive based on their ability to inhibit Matriptase activity in two assays compared with average of the irrelevant control wells (enzyme, substrate and B cell culture supernatant) shown below. The data is shown as a percentage of the average of the negative control wells (enzyme and substrate) as in Table 3.

The subject of assay [2] is unknown protease present in the B cell culture supernatant. The experiment in a line: QAR-MCA cleavage by unknown protease of B cell culture supernatant. The assay is classed as biochemical. The conditions noted are these: QAR-MCA substrate.
Description: as §1

The test system of another assay is Ramos cells. The experiment in a line: CDC assay. It is filed as cell-based. The conditions noted are these: 10, 5, 2.5 and 1.25 μg/mL, 25% human sera, 1 hour; sc95/96 as IgG1 or IgG2. On the procedure:
In this experiment, 100,000 Ramos cells in 25 μL of media were added to the bottom of a 96-well plate. […] Each sample point was run in quadruplicate. After 10 minutes at room temperature, 50 μL of 50% human sera (25% final concentration) was added to the cells and incubated at 37 degrees Celsius for 1 hour. CellTiterGlo reagent (100 μL) was added to each well and allowed to incubate on the cells for 10 minutes.

The subject of assay [3] is Ramos tumor-bearing SCID mice. The experiment in a line: Ramos hind-limb paralysis model. It is filed as in vivo. Particulars: 5 mg/kg, d1, i.p., 1×10^6 Ramos cells i.v. On the procedure: The ability of sc95/96 to modulate the invasive and/or metastatic properties of Ramos cells was evaluated in a rodent hind-limb paralysis model. Without therapeutic intervention, SCID mice inoculated systemically with Ramos B lymphoma cells develop hind limb paralysis at ˜25 days post injection, presumably related to the accumulation of tumor cells in the spinal cord and/or brain tissues (dijoseph et al., 2004, Clinical Cancer Research 10: 8620-8629).
In this experiment, 7-8 week old C.B-17 SCID male mice were inoculated with 1×10^6 Ramos cells via tail vein injection. […] Groups 1-3 thereafter received weekly 25 mg/kg injections of antibody or an equivalent volume of PBS. Animals were given food and water ad libidum and monitored daily for signs of paralysis. Individual mice were euthanized when unable to move due to hind limb paralysis.

A further assay concerns Raji cells. The experiment in a line: ADCC assay. The conditions noted are these: 0.0001 to 1 μg/ml, NK effector cells, 4 hours. The assay is classed as cell-based, human. On the procedure: Raji cells were used as target cells for the ADCC assay. To prepare the target cells, Raji cells were harvested and resuspended in media at 1.0×10^6 cells/ml. Calcein (Sigma C1359) was then added to a final concentration of 10 μM, and the cells were incubated for 45-60 minutes at 37° C., after which the Raji cells were pelleted by centrifugation at 1200 rpm for 10 minutes. The supernatant was discarded and the cells were resuspended in growth media. The centrifugation step was repeated, the cells were resuspended at a concentration of 1.0×10^4 cells in 75μL media and were then plated at 1.0×10^4 cells per well in a round bottom plate. […] The cells and antibody were incubated for 30 minutes at room temperature.
The effector cells for the ADCC assay were prepared as follows. […] The cells were counted to determine the concentration of natural killer (NK) cells, diluted to a concentration of 9.0×10^4 cells per 75 μL, and then 75 μL of these cells were then added to the Raji cells from the step above and then incubated for 4 hours at 37° C. The plate was then centrifuged at 1200 rpm for 5 minutes, and 100 μL of the supernatant was transferred to a flat, black clear-bottom 96 well plate and subsequently read on a Victor plate reader using a 490 nm excitation and 530 nm emission wavelength.

Take `O=S(=O)(F)Cc1ccccc1` [PMSF, phenylmethyl sulfonyl fluoride]: the “effect on activity of Matriptase” value in assay [1] is recorded as “without affecting the activity of Matriptase”. Moreover, the “inhibition of activity of the unknown protease” value in assay [2] was “completely inhibit”.
As for Rituximab [reference compound], the “CDC on Ramos cells” value in the assay with Ramos cells is given as “did demonstrate CDC activity”. Further, in assay [3], the Median survival time result is given as “greater than 45 days”. The “Raji cell lysis by ADCC” value with Raji cells is given as “induce Raji cell lysis by ADCC”.
